Biological target: T1, GoxA (Pseudoalteromonas luteoviolacea, UniProt A0A161XU12)
T1 sequence (A0A161XU12 1-816): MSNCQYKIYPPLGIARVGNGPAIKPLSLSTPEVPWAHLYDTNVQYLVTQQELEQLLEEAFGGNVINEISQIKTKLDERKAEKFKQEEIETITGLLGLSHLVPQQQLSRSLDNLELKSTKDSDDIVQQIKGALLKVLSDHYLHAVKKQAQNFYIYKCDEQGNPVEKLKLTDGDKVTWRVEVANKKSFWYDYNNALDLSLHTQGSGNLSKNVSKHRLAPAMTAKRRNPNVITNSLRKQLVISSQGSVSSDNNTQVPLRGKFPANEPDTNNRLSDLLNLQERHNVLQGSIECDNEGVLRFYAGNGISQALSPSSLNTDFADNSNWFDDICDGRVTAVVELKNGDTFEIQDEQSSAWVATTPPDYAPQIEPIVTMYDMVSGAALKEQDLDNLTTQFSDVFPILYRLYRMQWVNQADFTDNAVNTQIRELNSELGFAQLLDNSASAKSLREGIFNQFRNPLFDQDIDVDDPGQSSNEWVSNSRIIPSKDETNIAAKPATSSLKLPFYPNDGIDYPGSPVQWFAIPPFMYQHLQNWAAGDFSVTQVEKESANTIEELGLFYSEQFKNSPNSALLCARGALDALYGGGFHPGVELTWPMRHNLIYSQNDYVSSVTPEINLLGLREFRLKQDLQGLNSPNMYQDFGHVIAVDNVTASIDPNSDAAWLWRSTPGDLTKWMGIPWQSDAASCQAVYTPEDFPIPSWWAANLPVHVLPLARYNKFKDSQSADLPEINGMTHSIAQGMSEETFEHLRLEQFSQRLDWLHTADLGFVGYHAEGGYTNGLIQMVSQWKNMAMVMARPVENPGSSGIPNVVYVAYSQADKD
Assay: anaerobic absorbance titration at […] nm, fit to allosteric binding equation

Kd: 103 ± 3 µM
SMILES: NCC(=O)O [glycine]

— paper PMC6537893 (Biochemistry, 2019)
